# Test results: patent US8552013B2, “Heterocyclic compounds based on N6-substituted adenine, methods of their preparation, their use for preparation of drugs, cosmetic preparations and growth regulators, pharmaceutical preparations, cosmetic preparations and growth regulators containing these compounds” (USTAV Experimentalni Botaniky Akademie Ved Ceske Republiky, priority 2001, dated 2013)
# Where two headings read alike, the source gives them in different places.
# Assays:
# [1] = system: promyelocytic HL-60 leukemia; experiment: Calcein AM cytotoxicity, HL60; type: cell-based, human; conditions: read-out: IC 50, HL60
# Method in brief: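 Cells in DMEM with 10% FCS, pre-incubated 24 h, then exposed to six 4-fold compound dilutions in duplicate for 72 h at 37 °C, 5% CO2. Viability read by Calcein AM fluorescence after 1 h further incubation.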
# [2] = system: human diploid fibroblasts (HCA cells); experiment: Senescence, beta-galactosidase staining of human diploid fibroblasts; type: cell-based; conditions: for SENESCENT CELLS (%) HCA25: passage 25; for SENESCENT CELLS (%) HCA45: passage 45; for SENESCENT CELLS (%) HCA80: passage 80
# Method in brief: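 HCA fibroblasts at passages 25, 45 and 80 were fixed for 5 min at room temperature in 2% formaldehyde/0.2% glutaraldehyde. They were then incubated at 37 °C without CO2 for 1 to 16 hours with X-gal 1 mg/ml, 5 mM ferri- and ferrocyanide and 2 mM MgCl2 in citric/phosphate buffer, pH 6.0. Blue-stained cells were scored.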
# B16-F0 melanoma = experiment: Calcein AM cytotoxicity, B16-F0; type: cell-based; conditions: Mus musculus, B16F0, 72 h, read-out: IC 50, B16-F0
# Method in brief: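 Cells pre-incubated 24 hours, then exposed for 72 hours at 37° C. to six 4-fold compound dilutions in duplicate, top well concentration usually 266.7 μM. Viability read by Calcein AM fluorescence after 1 hour; GI50 taken from dose-response curves of survival relative to control wells.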
Compound,"IC50 ([1]; 72 hours, listed as 2F BAP) [µM]",SENESCENT CELLS (%) HCA25 [2] [%],SENESCENT CELLS (%) HCA45 [2] [%],SENESCENT CELLS (%) HCA80 [2] [%],"IC50 ([1]; Homo sapiens, HL-60, 72 h) [µM]",IC50 (B16-F0 melanoma) [µM]
Fc1ccccc1CNc1ncnc2nc[nH]c12 [6-(2-fluorobenzylamino)purine],> 167,4,3,16,–,–
Cc1ccccc1CNc1ncnc2nc[nH]c12 [6-(2-methylbenzylamino)purine],–,–,–,–,> 167,–
Fc1cccc(CNc2ncnc3nc[nH]c23)c1 [6-(3-fluorobenzylamino)purine],–,3,3,15,–,–
Ic1cccc(CNc2ncnc3nc[nH]c23)c1 [6-(3-iodobenzylamino)purine],–,–,–,–,133,–
COc1cccc(CNc2ncnc3nc[nH]c23)c1 [6-(3-methoxybenzylamino)purine],–,–,–,–,–,41.5
Cc1ccc(CNc2ncnc3nc[nH]c23)cc1 [6-(4-methylbenzylamino)purine],–,–,–,–,88,–
"Oc1cccc(CNc2ncnc3nc[nH]c23)c1 [meta-topolin, 6-(3-hydroxybenzylamino)purine]",–,5,3,22,–,90.6
"Oc1ccccc1CNc1ncnc2nc[nH]c12 [ortho-topolin, 6-(2-hydroxybenzylamino)purine]",–,3,4,17,–,150
